Measurements from ChEMBL document CHEMBL5696440, “Inhibition of BET recruitment to chromatin as an effective treatment for MLL-fusion leukaemia” (Nature, 2011).

Assays:
[1] = AUC (0 to infinity) in NOD:SCID mouse at 30 mg/kg, ip administered for 24 hrs by LC-MS/MS analysis; type: ADME, organism-based; conditions: in vivo
[2] = Half life in NOD:SCID mouse at 30 mg/kg, ip administered for 24 hrs by LC-MS/MS analysis; type: ADME, organism-based; conditions: in vivo
[3] = Cmax in NOD:SCID mouse at 30 mg/kg, ip administered for 24 hrs by LC-MS/MS analysis; type: ADME, organism-based; conditions: in vivo
NOMO-1 = assay: Antiproliferative activity against human NOMO-1 cells harboring MLL-AF9 assessed as inhibition of cell growth incubated for […] by CellTiter-Aqueous One assay; type: functional, cell-based; conditions: NOMO-1, 4 h
K562 = assay: cells; conditions: Homo sapiens, K562, 4 h
[4] = Cmax in NOD:SCID mouse at 30 mg/kg, ip administered for 36 hrs by LC-MS/MS analysis; type: ADME, organism-based; conditions: in vivo
[5] = target: Potassium voltage-gated channel subfamily A member 5 (Homo sapiens, UniProt P22460); assay: Inhibition of human Kv1.5 by blocker ionworks assay
D(2) dopamine receptor = D(2) dopamine receptor (Homo sapiens, UniProt P14416); assay: Inhibition of human dopamine 2 receptor in presence of GTPgS
Vasopressin V1a receptor = Vasopressin V1a receptor (Homo sapiens, UniProt P37288); assay: Inhibition of human V1a by intracellular Ca2+ fluorescence assay; type: functional, cell-based
Aurora kinase B = Aurora kinase B (Homo sapiens, UniProt Q96GD4); assay: Inhibition of His6-tagged human Aurora B kinase at pH 7.4 incubated for 60 mins by Alexa Fluor 488 staining based fluorescence anisotropy analysis
[6] = target: Alpha-1B adrenergic receptor (Homo sapiens, UniProt P35368); assay: Inhibition of human adrenergic alpha 1B by intracellular Ca2+ fluorescence assay; type: functional, cell-based
[7] = target: Beta-2 adrenergic receptor (Homo sapiens, UniProt P07550); assay: Inhibition of human beta2 adrenoceptor […] incubated for 1 hr by TR-FRET assay
[8] = target: Phosphatidylinositol 4,5-bisphosphate 3-kinase catalytic subunit gamma isoform (Homo sapiens, UniProt P48736); assay: Inhibition of His6-tagged human PI3K-gamma […] incubated for 1 hr by TR-FRET assay
[9] = target: Solute carrier organic anion transporter family member 1B1 (Homo sapiens, UniProt Q9Y6L6); assay: Inhibition of human OATP1B1 by FLINT imaging analysis
[10] = target: Tyrosine-protein kinase Lck (Homo sapiens, UniProt P06239); assay: Inhibition of His6-tagged human LCK at pH 7.4 incubated for 60 mins by Alexa Fluor 488 staining based fluorescence anisotropy analysis
[11] = target: Nucleoside diphosphate kinase A/B (Homo sapiens, UniProt P15531+P22392); assay: Inhibition of NME1/NME2 (unknown origin) incubated for 1 hr by colloidal coomassie staining based LC-MS/MS analysis; type: protein assay
Histamine H1 receptor = Histamine H1 receptor (Homo sapiens, UniProt P35367); assay: Inhibition of human HRH1 by intracellular Ca2+ luminescence assay; type: functional, cell-based
[12] = AUC (0 to infinity) in NOD:SCID mouse at 30 mg/kg, ip administered for 36 hrs by LC-MS/MS analysis; type: ADME, organism-based; conditions: in vivo
[13] = target: Sodium-dependent dopamine transporter (Homo sapiens, UniProt Q01959); assay: Inhibition of human DAT by scintillation proximity assay
[14] = target: Acetylcholine receptor subunit alpha (Homo sapiens, UniProt P02708); assay: Inhibition of human alpha 1 nAChR by intracellular Ca2+ fluorescence assay; type: cell-based
[15] = target: Glycogen synthase kinase-3 beta (Homo sapiens, UniProt P49841); assay: Inhibition of His6-tagged human GSK3beta at pH 7.4 incubated for 60 mins by Alexa Fluor 488 staining based fluorescence anisotropy analysis
D(1A) dopamine receptor = D(1A) dopamine receptor (Homo sapiens, UniProt P21728); assay: Inhibition of His6-tagged human dopamine 1 receptor […] incubated for 1 hr by TR-FRET assay
[16] = target: Muscarinic acetylcholine receptor M2 (Homo sapiens, UniProt P08172); assay: Inhibition of human M2 by intracellular Ca2+ fluorescence assay; type: functional, cell-based
[17] = target: 5-hydroxytryptamine receptor 2C (Homo sapiens, UniProt P28335); assay: Inhibition of human 5-HT2C by intracellular Ca2+ luminescence assay; type: functional, cell-based
[18] = target: 3',5'-cyclic-AMP phosphodiesterase 4B (Homo sapiens, UniProt Q07343); assay: Inhibition of human PDE4B by luminescence assay
[19] = target: 5-hydroxytryptamine receptor 2A (Homo sapiens, UniProt P28223); assay: Inhibition of human 5-HT2A by intracellular Ca2+ luminescence assay; type: functional, cell-based
[20] = target: Muscarinic acetylcholine receptor M1 (Homo sapiens, UniProt P11229); assay: Inhibition of human M1 by intracellular Ca2+ fluorescence assay; type: functional, cell-based
[21] = target: Serotonin 3 (5-HT3) receptor; assay: Inhibition of human 5-HT3 by intracellular Ca2+ fluorescence assay; type: cell-based
Substance-P receptor = Substance-P receptor (Homo sapiens, UniProt P25103); assay: Inhibition of human NK1 by intracellular Ca2+ luminescence assay; type: functional, cell-based
MV4-11 = assay: Antiproliferative activity against human MV4-11 cells assessed as inhibition of cell growth incubated for 72 hrs by CellTiter-Glo assay; type: functional, cell-based
in vivo = conditions: NOD:SCID, mouse, ip, 30 mg/kg
[22] = target: 5-hydroxytryptamine receptor 1B (Homo sapiens, UniProt P28222); assay: Inhibition of human 5-HT1B in presence of GTPgS
[23] = target: Voltage-gated potassium channel, IKs; KCNQ1(Kv7.1)/KCNE1(MinK) (Homo sapiens, UniProt P15382+P51787); assay: Inhibition of human KCNQ1/KCNE1 by blocker ionworks assay; type: protein-complex assay
[24] = target: Prostaglandin G/H synthase 2 (Homo sapiens, UniProt P35354); assay: Inhibition of human COX-2 by FLINT assay
Mu-type opioid receptor = Mu-type opioid receptor (Homo sapiens, UniProt P35372); assay: Inhibition of human OPRM1 in presence of GTPgS
[25] = target: Kappa-type opioid receptor (Homo sapiens, UniProt P41145); assay: Inhibition of human OPRK1 in presence of GTPgS
[26] = target: Cyclin-dependent kinase 2 (Homo sapiens, UniProt P24941); assay: Inhibition of CDK2 (unknown origin) incubated for 1 hr by colloidal coomassie staining based LC-MS/MS analysis
[27] = target: Voltage-dependent L-type calcium channel subunit alpha-1C (Homo sapiens, UniProt Q13936); assay: Inhibition of human CaV1.2 by intracellular Ca2+ fluorescence assay; type: cell-based
[28] = target: Sodium channel protein type 5 subunit alpha (Homo sapiens, UniProt Q14524); assay: Inhibition of human NaV1.5 by blocker ionworks assay
[29] = target: Serine/threonine-protein kinase Chk1 (Homo sapiens, UniProt O14757); assay: Inhibition of CHEK1 (unknown origin) incubated for 1 hr by colloidal coomassie staining based LC-MS/MS analysis

Muscarinic acetylcholine receptor M1, sequence (P11229 whole entry): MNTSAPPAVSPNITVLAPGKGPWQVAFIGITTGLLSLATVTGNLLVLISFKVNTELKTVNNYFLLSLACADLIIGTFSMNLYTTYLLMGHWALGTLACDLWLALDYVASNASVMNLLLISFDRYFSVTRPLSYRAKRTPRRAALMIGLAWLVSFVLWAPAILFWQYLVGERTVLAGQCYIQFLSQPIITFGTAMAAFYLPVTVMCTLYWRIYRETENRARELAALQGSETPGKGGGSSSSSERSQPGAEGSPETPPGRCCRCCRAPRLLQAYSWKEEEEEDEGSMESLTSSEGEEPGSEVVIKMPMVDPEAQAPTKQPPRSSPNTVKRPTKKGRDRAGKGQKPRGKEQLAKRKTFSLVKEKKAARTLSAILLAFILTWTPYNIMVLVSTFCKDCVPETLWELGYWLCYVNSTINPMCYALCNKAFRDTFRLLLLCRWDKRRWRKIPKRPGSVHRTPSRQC
Tyrosine-protein kinase Lck, sequence (P06239 whole entry): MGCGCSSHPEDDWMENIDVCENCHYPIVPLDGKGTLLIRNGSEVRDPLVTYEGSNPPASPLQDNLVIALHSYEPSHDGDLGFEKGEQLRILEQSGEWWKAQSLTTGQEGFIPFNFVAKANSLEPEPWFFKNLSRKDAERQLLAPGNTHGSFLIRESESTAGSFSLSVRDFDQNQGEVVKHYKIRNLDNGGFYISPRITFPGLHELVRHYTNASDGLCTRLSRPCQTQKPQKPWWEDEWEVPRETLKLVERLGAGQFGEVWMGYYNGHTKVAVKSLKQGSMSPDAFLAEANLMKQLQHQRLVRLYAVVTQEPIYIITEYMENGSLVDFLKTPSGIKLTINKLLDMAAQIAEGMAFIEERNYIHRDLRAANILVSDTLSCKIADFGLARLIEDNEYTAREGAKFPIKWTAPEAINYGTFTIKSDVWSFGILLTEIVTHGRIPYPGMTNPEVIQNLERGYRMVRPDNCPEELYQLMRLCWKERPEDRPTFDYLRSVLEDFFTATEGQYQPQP
Aurora kinase B, sequence (Q96GD4 whole entry): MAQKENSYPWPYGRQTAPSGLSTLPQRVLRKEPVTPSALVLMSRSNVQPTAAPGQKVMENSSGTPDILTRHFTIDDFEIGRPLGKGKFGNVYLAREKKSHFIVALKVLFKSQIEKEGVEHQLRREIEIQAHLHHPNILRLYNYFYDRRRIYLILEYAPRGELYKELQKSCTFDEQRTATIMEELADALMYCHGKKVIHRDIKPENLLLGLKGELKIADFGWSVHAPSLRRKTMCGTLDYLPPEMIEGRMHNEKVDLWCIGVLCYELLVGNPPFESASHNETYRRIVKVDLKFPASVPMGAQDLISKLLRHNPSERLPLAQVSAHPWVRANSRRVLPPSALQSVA
5-hydroxytryptamine receptor 1B, sequence (P28222 whole entry): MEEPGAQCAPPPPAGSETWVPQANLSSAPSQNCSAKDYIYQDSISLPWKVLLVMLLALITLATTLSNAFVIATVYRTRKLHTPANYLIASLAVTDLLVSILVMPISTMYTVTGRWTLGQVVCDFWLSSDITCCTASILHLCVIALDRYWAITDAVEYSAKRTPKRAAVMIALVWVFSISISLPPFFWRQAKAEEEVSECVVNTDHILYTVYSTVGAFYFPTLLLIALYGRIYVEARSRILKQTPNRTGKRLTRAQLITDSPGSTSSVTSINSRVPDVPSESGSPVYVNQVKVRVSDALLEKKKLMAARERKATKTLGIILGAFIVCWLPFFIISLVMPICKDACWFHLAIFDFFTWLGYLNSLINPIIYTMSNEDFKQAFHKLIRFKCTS
Glycogen synthase kinase-3 beta, sequence (P49841 whole entry): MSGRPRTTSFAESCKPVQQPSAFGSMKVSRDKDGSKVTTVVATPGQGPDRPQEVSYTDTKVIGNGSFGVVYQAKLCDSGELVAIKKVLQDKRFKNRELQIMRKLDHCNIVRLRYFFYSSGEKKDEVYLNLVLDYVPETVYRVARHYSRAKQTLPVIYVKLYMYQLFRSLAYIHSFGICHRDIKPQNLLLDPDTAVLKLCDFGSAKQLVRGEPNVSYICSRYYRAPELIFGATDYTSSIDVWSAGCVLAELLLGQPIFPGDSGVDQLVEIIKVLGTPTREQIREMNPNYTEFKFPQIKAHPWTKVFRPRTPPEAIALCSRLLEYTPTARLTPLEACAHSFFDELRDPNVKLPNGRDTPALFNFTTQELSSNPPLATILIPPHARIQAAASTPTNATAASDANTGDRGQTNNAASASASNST
Prostaglandin G/H synthase 2, sequence (P35354 whole entry): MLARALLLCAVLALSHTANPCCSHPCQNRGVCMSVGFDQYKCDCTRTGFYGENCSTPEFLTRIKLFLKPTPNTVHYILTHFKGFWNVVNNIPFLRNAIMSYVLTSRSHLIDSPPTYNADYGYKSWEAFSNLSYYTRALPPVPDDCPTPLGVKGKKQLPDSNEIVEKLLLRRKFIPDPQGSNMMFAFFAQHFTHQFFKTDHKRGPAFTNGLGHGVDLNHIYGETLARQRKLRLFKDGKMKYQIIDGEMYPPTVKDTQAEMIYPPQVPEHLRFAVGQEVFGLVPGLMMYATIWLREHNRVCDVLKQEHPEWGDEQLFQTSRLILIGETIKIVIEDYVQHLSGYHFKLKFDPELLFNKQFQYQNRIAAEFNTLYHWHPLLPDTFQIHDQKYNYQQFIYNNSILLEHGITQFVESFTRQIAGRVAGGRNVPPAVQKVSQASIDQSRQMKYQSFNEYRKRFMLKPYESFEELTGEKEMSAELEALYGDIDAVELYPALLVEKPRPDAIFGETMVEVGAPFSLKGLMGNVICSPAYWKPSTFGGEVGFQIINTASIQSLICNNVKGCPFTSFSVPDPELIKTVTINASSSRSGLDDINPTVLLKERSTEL
Solute carrier organic anion transporter family member 1B1, sequence (Q9Y6L6 whole entry): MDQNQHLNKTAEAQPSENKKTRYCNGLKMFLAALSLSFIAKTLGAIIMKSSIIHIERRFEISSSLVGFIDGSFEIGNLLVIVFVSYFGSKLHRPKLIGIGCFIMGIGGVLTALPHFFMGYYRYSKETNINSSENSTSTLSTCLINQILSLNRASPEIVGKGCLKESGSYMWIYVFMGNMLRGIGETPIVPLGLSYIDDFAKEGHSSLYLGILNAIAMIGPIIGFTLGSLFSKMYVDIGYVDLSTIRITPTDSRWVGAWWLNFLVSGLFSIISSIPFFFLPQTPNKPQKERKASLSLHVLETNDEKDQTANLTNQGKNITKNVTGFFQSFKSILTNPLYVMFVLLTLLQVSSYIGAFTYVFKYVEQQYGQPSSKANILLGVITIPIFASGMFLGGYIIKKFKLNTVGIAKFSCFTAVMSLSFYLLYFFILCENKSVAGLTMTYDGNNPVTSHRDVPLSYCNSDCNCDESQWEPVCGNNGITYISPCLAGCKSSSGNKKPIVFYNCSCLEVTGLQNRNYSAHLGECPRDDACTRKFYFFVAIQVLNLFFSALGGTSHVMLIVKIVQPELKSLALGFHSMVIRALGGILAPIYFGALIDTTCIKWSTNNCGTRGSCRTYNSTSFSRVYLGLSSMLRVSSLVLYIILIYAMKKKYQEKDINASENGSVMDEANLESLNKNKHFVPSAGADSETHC
Voltage-gated potassium channel, IKs; KCNQ1(Kv7.1)/KCNE1(MinK), sequence (P51787 whole entry): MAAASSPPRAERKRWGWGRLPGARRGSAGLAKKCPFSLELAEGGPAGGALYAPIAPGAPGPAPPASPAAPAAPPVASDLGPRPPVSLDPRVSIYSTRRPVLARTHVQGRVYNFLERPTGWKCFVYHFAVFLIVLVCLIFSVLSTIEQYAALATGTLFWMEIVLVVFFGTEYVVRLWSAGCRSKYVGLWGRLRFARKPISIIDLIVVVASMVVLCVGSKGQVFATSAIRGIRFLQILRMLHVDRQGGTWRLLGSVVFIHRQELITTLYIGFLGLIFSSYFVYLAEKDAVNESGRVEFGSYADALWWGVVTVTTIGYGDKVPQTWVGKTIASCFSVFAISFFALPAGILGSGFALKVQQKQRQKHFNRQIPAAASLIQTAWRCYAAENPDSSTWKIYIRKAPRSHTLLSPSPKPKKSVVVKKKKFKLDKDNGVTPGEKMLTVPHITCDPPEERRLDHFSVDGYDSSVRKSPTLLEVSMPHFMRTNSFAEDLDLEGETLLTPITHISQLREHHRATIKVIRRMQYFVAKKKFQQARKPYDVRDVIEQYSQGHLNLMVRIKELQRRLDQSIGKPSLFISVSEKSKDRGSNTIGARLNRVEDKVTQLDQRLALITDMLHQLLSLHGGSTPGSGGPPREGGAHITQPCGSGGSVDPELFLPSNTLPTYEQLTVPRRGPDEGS
5-hydroxytryptamine receptor 2A, sequence (P28223 whole entry): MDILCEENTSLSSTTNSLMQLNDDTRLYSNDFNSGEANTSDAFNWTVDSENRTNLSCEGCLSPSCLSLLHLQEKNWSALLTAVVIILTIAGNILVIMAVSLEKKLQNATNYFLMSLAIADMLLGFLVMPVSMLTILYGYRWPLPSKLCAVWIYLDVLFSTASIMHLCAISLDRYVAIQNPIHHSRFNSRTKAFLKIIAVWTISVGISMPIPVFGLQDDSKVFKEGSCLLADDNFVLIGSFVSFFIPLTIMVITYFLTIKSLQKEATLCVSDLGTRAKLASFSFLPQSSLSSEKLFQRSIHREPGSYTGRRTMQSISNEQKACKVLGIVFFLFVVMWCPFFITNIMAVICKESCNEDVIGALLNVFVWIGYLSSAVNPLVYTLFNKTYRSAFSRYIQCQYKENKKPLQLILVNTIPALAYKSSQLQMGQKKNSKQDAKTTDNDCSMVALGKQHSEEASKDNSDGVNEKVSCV

Cc1sc2c(c1C)C(c1ccc(Cl)cc1)=N[C@@H](CC(=O)OC(C)(C)C)c1nnc(C)n1-2
AUC [1]: 2 µM·h
half-life [2]: 2.3 h
Cmax [3]: 0.84 µM

O=C(Nc1c[nH]nc1-c1nc2ccc(CN3CCOCC3)cc2[nH]1)NC1CC1 [AT-9283]
IC50 (NOMO-1): > 10 µM
IC50 (K562): 0.26 µM

CCNC(=O)C[C@@H]1N=C(c2ccc(Cl)cc2)c2cc(OC)ccc2-n2c(C)nnc21 [MOLIBRESIB]
Cmax [4]: 21.9 µM
IC50 [5]: > 50 µM
IC50 (D(2) dopamine receptor): > 100 µM
IC50 (Vasopressin V1a receptor): > 50 µM
IC50 (Aurora kinase B): > 25 µM
IC50 [6]: > 40 µM
IC50 [7]: > 31.6 µM
IC50 [8]: > 25 µM
IC50 [9]: 12.6 µM
IC50 [10]: > 25 µM
IC50 [11]: > 10 µM
IC50 (Histamine H1 receptor): > 40 µM
AUC [12]: 40.3 µM·h
IC50 [13]: 79 µM
IC50 [14]: 15.8 µM
IC50 [15]: > 25 µM
IC50 (D(1A) dopamine receptor): > 31.6 µM
IC50 [16]: > 15.8 µM
IC50 [17]: > 40 µM
IC50 [18]: > 25 µM
IC50 [19]: > 40 µM
IC50 [20]: > 15.1 µM
IC50 [21]: > 50 µM
IC50 (Substance-P receptor): > 40 µM
IC50 (MV4-11; Homo sapiens, MV4-11, 72 h): 0.102 µM
IC100 (MV4-11; time 72 hrs): 723 nM
half-life at 36 h (in vivo): 1.6 h
IC50 [22]: > 100 µM
IC50 [23]: > 25 µM
IC50 [24]: > 100 µM
IC50 (Mu-type opioid receptor): > 100 µM
IC50 [25]: > 100 µM
IC50 [26]: ≥ 10 µM
IC50 [27]: > 15.8 µM
IC50 [28]: > 100 µM
IC50 [29]: > 10 µM
